Reference: patent US12364667B2, “Anti-tumor platinum-based drug mineralized protein nanoparticle, preparation method therefor and use thereof” (SOOCHOW UNIVERSITY, priority 2019, dated 2025)

Experiments:
HepG-2 cell line = assay: MTT cytotoxicity on HepG-2 cell line; type: cell-based, human; details: 24 hours
Description: Placing the plate in a cell incubator for 12 hours at constant temperature. […] After 24 hours in the incubator, replace the culture medium, add 10 μL of MTT (3-(4,5-dimethylthiazol-2-yl)-2,5-diphenyltetrazolium bromide) PBS (phosphate-buffered saline) solution with a concentration of 5 mg/mL, discard the culture medium after 4 hours, add 200 μL of DMSO (dimethylsulfoxide), shake for 10 minutes, measure the absorbance value at 490 nm with a microplate reader.

A549 tumor model = assay: Anti-tumor effect, A549 subcutaneous tumor model; type: in vivo
A549/DDP tumor model = assay: Anti-tumor effect, A549/DDP subcutaneous tumor model; type: in vivo, nude mice; details: platinum 1 mg/kg once every 5 days, 25 days
[1] = Serum ALT, AST, ALP and urea nitrogen after treatment; type: in vivo, Balb/c mice; details: 7 days after complete injection; tail vein, once every 5 days, 5 administrations
Description: 12. […] Each mouse was administered via the tail vein (1 mg/mL, once every 5 days). After a total of 5 administrations for 25 days, each mouse was taken by eyeball blood sampling at 7, 14, 21, and 28 days after administration. A 0.5 mL blood sample from a mouse was placed overnight at 4° C. and centrifuged at 1000 rpm for 5 min. The upper clarified serum 200 μL was taken out to measure the alanine aminotransferase (ALT), aspartate aminotransferase (AST), alkaline phosphatase (ALP) and urea nitrogen (Urea) contents.

Structure (SMILES): N.N.[Cl][Pt][Cl] [cisplatin]
- IC50 for HepG-2 cell line (HepG-2 cell line): 12.6 µg/mL
- effect on tumor growth (A549 tumor model; A549 tumor model, platinum 1 mg/kg once every 5 days, 25 days): a certain tumor-inhibiting effect
- condition of the nude mice during the observation period (A549 tumor model; mouse, in vivo): in poor condition and lost weight
- effect on tumor growth (A549/DDP tumor model): a certain tumor-inhibiting effect
- serum urea nitrogen content versus control group [1]: significantly different from that of the control group
